Measurements: PMC6848382, “Characterization of the Bioactivity and Mechanism of Bactenecin Derivatives Against Food-Pathogens” (Frontiers in Microbiology, 2019)
≈ marks a conversion by molar mass, not a printed value. Where two headings read alike, the source gives them in different places. Residues, ends and D or L forms follow the SMILES beside them. No end group written: not given here.

Tests used:
[1] = tested on: EA. hy 926 cells; test: Cytotoxicity (CCK-8); type: cell-based, human; conditions: CCK-8, 24 h; for EA. hy 926 cell viability: peptide concentration 128 μM
Protocol: The cytotoxicity of the peptides was tested on the EA. hy 926 cell line by using the Cell Counting Kit-8 (CCK-8, Dojindo, Japan) as described in a previous study ([Sánchez-Gómez et al., 2015]). The EA. Hy 926 cells cultured in the logarithmic growth -phase was then diluted with PBS to a single cell suspension. A 100 μL cell suspension (2 × 10^5 cells) was added to 96-well plates and cultured in an incubator with a 5% CO2 atmosphere at 37°C. The cell culture medium was removed, and the two-fold serial dilutions of peptides prepared using DMEM with 5% FBS were added to the 96-well plates. After 24 h, 100 μL DMEM with 10% CCK-8 was added to the 96-well plates and then cultured for 4 h. The absorbance was measured at 492 nm by using a microplate reader. DMEM served as a positive control and cells mixed with DMEM without peptides as a negative control. Melittin was employed as a control peptide.

[2] = tested on: Salmonella enteric-subspenterica CMCC50071; conditions: 1 × 10^6 CFU/mL, 24 h, 37°C, triplicate
Protocol: (§1) The antimicrobial activity of each peptide against food-pathogens was characterized by the minimum inhibitory concentration (MIC) ([Ma et al., 2013]). A logarithmic growth-phase culture of bacteria (1 × 10^6 CFU/mL) was mixed with peptide solutions (final concentration ranging from 0 μM to 256 μM) in 96-well plates. After the 96-well plates were incubated for 24 h at 37°C, optical dispersion (OD) was measured using a microplate reader (Bio-Rad, ıHercules, CA, United States) at 630 nm. […] The broth with bacteria cells was used as the negative control, and un-inoculated broth was used as a positive control. The tests were performed in triplicate using three replicates for each experiment.

[3] = tested on: Bacillus cereus CMCC6303; type: cell-based
Protocol: as §1

[4] = tested on: Cronobacter sakazakii ATCC29544; type: cell-based
Protocol: as §1

[5] = tested on: Escherichia coli UB1005; type: cell-based
Protocol: as §1

[6] = tested on: 12 typical food-pathogens; conditions: over the 12 food-pathogens of Table 3
Protocol: as §1
The selectivity index (SI), calculated as the ratio of MHC to GM, was used a comparison parameter for the safety and efficacy of peptides.

[7] = tested on: Listeria monocytogenes CMCC54004; type: cell-based
Protocol: as §1

[8] = tested on: Salmonella typhimurium C77-31; type: cell-based
Protocol: as §1

[9] = tested on: Staphylococcus aureus CMCC26074; type: cell-based
Protocol: as §1

[10] = tested on: Salmonella enteric-subspenterica CMCC47020; conditions: 1 × 10^6 CFU/mL, 24 h, 37°C, triplicate
Protocol: as §1

[11] = tested on: Salmonella typhimurium ATCC14028; type: cell-based
Protocol: as §1

[12] = tested on: Escherichia coli ATCC25922; type: cell-based; conditions: for MIC, CaCl2 / MIC, Control / MIC, KCl / MIC, MgCl2 / MIC, NH4Cl / MIC, NaCl: ATCC25922, 24 h
Protocol: To evaluate the effect of different physiological conditions on the stability of peptides, we determined the salt stability, thermal stability, and enzymatic stability as described in a previous study ([Dong, 2013]; [Sun et al., 2018]). Escherichia coli ATCC25922 grown in the logarithmic phase (1 × 10^6 CFU/mL) was exposed to each peptide at different salt concentrations (150 mM NaCl, 4.5 mM KCl, 6 μM NH4Cl, 1 mM MgCl2, 8 μM ZnCl2, 2 mM CaCl2, and 4 μM FeCl3). The peptides were treated for 1 h at 100°C to test for thermal stability. The peptides were treated with trypsin, pepsin, papain and protease k at a concentration of 1 mg/mL for 1 h at 37°C to test for enzyme stability. The control group consisted of untreated peptides. The subsequent assay was consistent with the MIC assay.

[13] = tested on: Escherichia coli ATCC25922; type: cell-based; conditions: ATCC25922, 24 h
Protocol: as §1

[14] = tested on: Salmonella pullorum C79-13; type: cell-based; conditions: 24 h
Protocol: as §1

[15] = tested on: Staphylococcus aureus ATCC25923; type: cell-based
Protocol: as §1

[16] = Staphylococcus aureus CMCC26074, 1 × 10^6 CFU/mL, 24 h, 37°C, triplicate
[17] = E. coli ATCC25922, peptides treated with trypsin 1 mg/mL, 1 h, 37°C
[18] = Staphylococcus aureus ATCC25923, 1 × 10^6 CFU/mL, 24 h, 37°C, triplicate

Compound	EA. hy 926 cell viability [1] [%]	MIC ([3]; CMCC6303, 24 h) [µM]	MIC ([4]; ATCC29544, 24 h) [µM]	MIC ([5]; UB1005, 24 h) [µM]	GM (geometric mean of MICs) [6] [µM]	MIC ([7]; CMCC54004, 24 h) [µM]	MIC ([8]; murium C77-31, 24 h) [µM]	MIC ([9]; CMCC26074, 24 h) [µM]	MIC, Heat ([12]; ATCC25922, 1 h) [µM]	MIC, Papain ([12]; ATCC25922, 1 h) [µM]	MIC, Pepsin ([12]; ATCC25922, 1 h) [µM]	MIC, Proteinase k ([12]; ATCC25922, 1 h) [µM]	MIC, CaCl2 [12] [µM]	MIC, Control [12] [µM]	MIC, KCl [12] [µM]	MIC, MgCl2 [12] [µM]	MIC, NH4Cl [12] [µM]	MIC, NaCl [12] [µM]	MIC [13] [µM]	MIC [14] [µM]	other results
RKWRIVVIRVRR-NH2 [K2W3V10R11]	80	16	32	8	19.0	2	32	256	8	2	128	256	8	2	2	4	2	8	2	8	MIC [2]: 8 µM; MIC [10]: 64 µM; MIC ([11]; ATCC14028, 24 h): 32 µM; MIC, Trypsin ([12]; ATCC25922, 1 h): >256 µM; MIC ([15]; ATCC25923, 24 h): 128 µM
melittin [reference compound]	–	–	–	–	–	–	–	–	–	–	–	–	–	–	–	–	–	–	–	–	Cytotoxicity ([1]; at 16 μM): 100%
RWKRIVVIRKRR-NH2 [W2K3K10R11]	83	–	256	256	170.0	–	256	–	16	4	16	8	4	4	4	4	4	8	4	256	MIC ([3]; Bacillus cereus CMCC6303, 1 × 10^6 CFU/mL, 24 h, 37°C, triplicate): 128 µM; MIC ([7]; Listeria monocytogenes CMCC54004, 1 × 10^6 CFU/mL, 24 h, 37°C, triplicate): 128 µM; MIC [9, 16]: >256 µM; MIC ([11]; Salmonella typhimurium ATCC14028, 1 × 10^6 CFU/mL, 24 h, 37°C, triplicate): 128 µM; MIC, Trypsin [12, 17]: >256 µM; MIC [15, 18]: >256 µM
CC[C@H](C)[C@@H]1NC(=O)[C@H](CCCNC(=N)N)NC(=O)[C@@H](NC(=O)[C@H](CC(C)C)NC(=O)[C@@H](N)CCCNC(=N)N)CSSC[C@@H](C(=O)N[C@@H](CCCNC(=N)N)C(N)=O)NC(=O)[C@H](C(C)C)NC(=O)[C@H](CCCNC(=N)N)NC(=O)[C@H]([C@@H](C)CC)NC(=O)[C@H](C(C)C)NC(=O)[C@H](C(C)C)NC1=O [L2C3V10C11, bactenecin] (HELM PEPTIDE1{R.L.C.R.I.V.V.I.R.V.C.R.[am]}$PEPTIDE1,PEPTIDE1,3:R3-11:R3$$$V2.0)	–	64 (≈ 94.9 µg/mL)	256 (≈ 380 µg/mL)	–	–	–	>256	>256	8 (≈ 11.9 µg/mL)	16 (≈ 23.7 µg/mL)	16 (≈ 23.7 µg/mL)	32 (≈ 47.5 µg/mL)	8 (≈ 11.9 µg/mL)	4 (≈ 5.93 µg/mL)	4 (≈ 5.93 µg/mL)	4 (≈ 5.93 µg/mL)	4 (≈ 5.93 µg/mL)	16 (≈ 23.7 µg/mL)	4 (≈ 5.93 µg/mL)	>256	MIC, Trypsin ([12]; ATCC25922, 1 h): 64 µM (≈ 94.9 µg/mL); MIC ([15]; ATCC25923, 24 h): >256 µM
RRFRIVVIRWLR-NH2 [R2F3W10L11]	71	32	32	16	32.0	16	64	256	32	8	16	128	8	2	8	2	4	16	2	32	MIC [2]: 8 µM; MIC [10]: 64 µM; MIC ([11]; ATCC14028, 24 h): 32 µM; MIC, Trypsin ([12]; ATCC25922, 1 h): >256 µM; MIC ([15]; ATCC25923, 24 h): 256 µM
RKRRIVVIRRKR-NH2 [K2R3R10K11]	85	128	–	–	191.8	32	–	–	16	8	32	8	16	8	8	8	8	32	8	–	MIC ([4]; Cronobacter sakazakii ATCC29544, 1 × 10^6 CFU/mL, 24 h, 37°C, triplicate): >256 µM; MIC ([5]; Escherichia coli UB1005, 1 × 10^6 CFU/mL, 24 h, 37°C, triplicate): 256 µM; MIC ([8]; Salmonella typhimurium C77-31, 1 × 10^6 CFU/mL, 24 h, 37°C, triplicate): >256 µM; MIC [9, 16]: >256 µM; MIC ([11]; ATCC14028, 24 h): 128 µM; MIC, Trypsin [12, 17]: >256 µM; MIC ([14]; Salmonella pullorum C79-13, 1 × 10^6 CFU/mL, 37°C, triplicate): 256 µM; MIC [15, 18]: >256 µM
RWRRIVVIRVRR-NH2 [W2R3V10R11]	80	64	16	16	24.0	2	32	64	4	2	32	8	8	2	2	4	2	4	2	32	MIC [2]: 8 µM; MIC [10]: 128 µM; MIC ([11]; ATCC14028, 24 h): 32 µM; MIC, Trypsin ([12]; ATCC25922, 1 h): >256 µM; MIC ([15]; ATCC25923, 24 h): 256 µM
RRWRIVVIRWRR-NH2 [R2W3W10R11]	77	64	64	16	30.2	1	64	128	8	4	32	128	2	2	2	2	2	4	2	32	MIC [2]: 8 µM; MIC [10]: 256 µM; MIC ([11]; ATCC14028, 24 h): 64 µM; MIC, Trypsin [12, 17]: >256 µM; MIC ([15]; ATCC25923, 24 h): 128 µM
